Assays:
[1] = test system: Kras G12C mutant NCI-H358 cells; assay: Cell proliferation inhibition experiment, 3D cell model, CellTiter-Glo (H358); format: cell-based, human; conditions: NCI-H358, 2% FBS RPMI-1640, 384-well sphere plate, cultured 5 days with compound
Description: (§1) NCI-H358 was a human non-small cell lung cancer cell line with Kras G12C mutation, cultured in 10% FBS RPMI-1640 medium; A549 was a human lung adenocarcinoma cell line with Kras G12S mutation, cultured in 10% FBS F-12K medium. The cells in the logarithmic growth phase was taken, digested with trypsin EDTA, collected and counted, and H358 was adjusted to 1.8E4 cells/ml using 2% FBS RPMI-1640 medium, and A549 was adjusted to 8.9E3 cells/ml using 2% FBS F-12K medium; 800 (45 μl) H358 or 400 (45 μl) A549 cells were seeded in a 384-well sphere plate respectively, cultured overnight to establish a 3D cell model. DMSO was used to prepare 1000× compound 3.16-fold gradient concentration stock solution, and 2% FBS medium was used to dilute 100-fold to 10× compound stock solution. On the second day after cell seeding, 5 μl 10× compound stock solution was added to each cell culture well, the final concentration was 1×, and DMSO content was 0.1%. DMSO was used as the experimental control (control) and 2% FBS medium as the blank control (blank). After the compound and cells were added and cultured for 5 days, 25 μl CellTiter-Glo working solution was added to each well, mixed at 400 rpm and incubated for 30 minutes. After standing 30 minutes at room temperature, 40 μl of the mixture was transfered to a 384-well plate with a non-transparent white bottom, the luminescence chemiluminescence value was read, and the cells proliferation inhibition rate IR (%)=(RLU control-RLU compound)/(RLU control-RLU blank)×100% was calculated, Prism 6 four-parameter method was used to fit the compound's gradient dilution concentration and the corresponding cell proliferation inhibition rate, and the IC50 value was calculated.

[2] = test system: A549 cells (Kras G12S mutation); assay: Cell proliferation inhibition experiment, 3D cell model, CellTiter-Glo (A549); format: cell-based, human; conditions: A549, 2% FBS F-12K, 384-well sphere plate, cultured 5 days with compound
Description: as §1

SMILES	IC50 ([1]; Homo sapiens, NCI-H358, 120 h) [nM]	IC50 ([2]; Homo sapiens, A549, 120 h) [nM]	IC50 [1] [nM]	IC50 [2] [nM]
C=CC(=O)N1[C@@H]2CC[C@H]1CN(c1nc(OC[C@@H]3CCCN3C)nc3c(OC4CC4)c(-c4c(C)ccc5[nH]ncc45)c(Cl)cc13)C2 [Compound Z42, 1-((1R, 5S)-3-(6-chloro-8-cyclopropoxy-7-(5-methyl-1H-indazol-4-yl)-2-(((S)-1-methylpyrrolidin-2-yl)methoxy)quinazolin-4-yl)-3,8-diazabicyclo[3.2.1]octane-8-yl)prop-2-en-1-one]	331	> 30000	–	–
C=CC(=O)N1CCN(c2nc(OC[C@@H]3C[C@H](F)CN3C)nc3c(OC4CC4)c(-c4c(C)ccc5[nH]ncc45)c(Cl)cc23)CC1 [Compound Z45, 1-(4-(6-chloro-8-cyclopropoxy-2-((((2S, 4S)-4-fluoro-1-methylpyrrolidin-2-yl)methoxy)-7]-(5-methyl-1H-indazol-4-yl)quinazolin-4-yl)piperazin-1-yl)prop-2-en-1-one]	18	> 30000	–	–
C=CC(=O)N1CCN(c2nc(OC[C@@H]3CCCN3C)nc3c(OC4CC4)c(-c4c(C)ccc5[nH]ncc45)c(Cl)cc23)C[C@@H]1CC#N [Compound Z46]	–	–	2	> 30000
C=CC(=O)N1CCN(c2nc(OC[C@@H]3CCCN3C)nc3c(OC4CC4)c(-c4c(C)ccc5[nH]nc(F)c45)c(Cl)cc23)CC1 [Compound Z47, 1-(4-(6-chloro-8-cyclopropoxy-7-(3-fluoro-5-methyl-1H-indazol-4-yl)-2-((((S)-1-methylpyrrolidin-2-yl))methoxy)quinazolin-4-yl)piperazin-1-yl)prop-2-en-1-one]	38	> 5000	–	–
C=CC(=O)N1CCN(c2nc(OC[C@@H]3CCCN3C)nc3c(OC4CC4)c(-c4c(C)ccc5[nH]ncc45)c(OC)cc23)CC1 [Compound Z49, 1-(4-(8-cyclopropoxy-6-methoxy-7-(5-methyl-1H-indazol-4-yl)-2-(((S)-1-methylpyrrolidin-2-yl)methoxy)quinazolin-4-yl)piperazin-1-yl)prop-2-en-1-one]	83	> 30000	–	–

— patent US20220363681A1, “OXO SIX-MEMBERED CYCLOPYRIMIDINE COMPOUND, PREPARATION METHOD AND MEDICAL USE THEREOF” (GenFleet Therapeutics (Shanghai) Inc., priority 2019, published 2022)
